In patent US20050165024A1, “Urea derivatives as kinase modulators” (Ambit Biosciences Corporation, priority 2003, published 2005) one finds Kd data, which are given here for 51 molecules.

T2 sequence (Q16539 whole entry): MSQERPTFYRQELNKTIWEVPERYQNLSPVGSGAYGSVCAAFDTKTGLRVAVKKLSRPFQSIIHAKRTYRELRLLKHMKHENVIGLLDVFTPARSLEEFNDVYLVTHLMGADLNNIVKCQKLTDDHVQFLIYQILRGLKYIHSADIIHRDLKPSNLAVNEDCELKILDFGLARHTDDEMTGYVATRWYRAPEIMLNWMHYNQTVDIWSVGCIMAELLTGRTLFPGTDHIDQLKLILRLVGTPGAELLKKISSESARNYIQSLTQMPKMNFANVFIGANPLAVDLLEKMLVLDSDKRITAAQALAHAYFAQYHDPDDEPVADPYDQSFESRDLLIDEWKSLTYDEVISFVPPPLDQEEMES
T1 sequence (O94804 36-294 limits assumed): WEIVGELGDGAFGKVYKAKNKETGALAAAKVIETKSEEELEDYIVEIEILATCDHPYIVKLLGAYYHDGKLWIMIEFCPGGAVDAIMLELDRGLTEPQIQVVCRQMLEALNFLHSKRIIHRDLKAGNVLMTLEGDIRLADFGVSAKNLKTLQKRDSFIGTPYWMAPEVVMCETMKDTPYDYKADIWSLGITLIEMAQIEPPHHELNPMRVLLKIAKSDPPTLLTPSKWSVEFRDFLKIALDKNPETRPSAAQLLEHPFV
T3 sequence (Q9HBH9 84-388 limits assumed): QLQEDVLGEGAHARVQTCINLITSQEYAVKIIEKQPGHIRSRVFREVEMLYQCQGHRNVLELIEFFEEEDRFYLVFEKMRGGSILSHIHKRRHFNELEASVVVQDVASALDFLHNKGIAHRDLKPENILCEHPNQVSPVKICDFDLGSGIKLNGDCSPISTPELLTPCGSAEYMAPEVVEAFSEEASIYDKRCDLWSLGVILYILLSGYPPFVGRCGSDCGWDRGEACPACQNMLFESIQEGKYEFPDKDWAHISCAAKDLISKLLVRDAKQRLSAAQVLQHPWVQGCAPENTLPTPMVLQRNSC

One test concerns the target T1, STK10(DKIN) (Homo sapiens, UniProt O94804).
T1 construct: STK10(DKIN); made in house
Nature of the test: Binding constant (Kd) measurement, phage-displayed kinase competition binding assay: STK10. Particulars: Kd class symbols. The text has this:
(§1) The term “ND” represents non-determined values.
By Kd is commonly meant a measure of binding affinity in units of concentration. Higher therefore signals lower affinity. On to `CC(C)(C)c1cc(NC(=O)Nc2ccc(NC(=O)c3nccnc3N)cc2)no1`, for which the equilibrium dissociation constant (Kd) is 100 to 1000 nM.

Molecule `CC(C)(C)c1cc(NC(=O)Nc2ccc(N3C(=O)c4ccccc4C3=O)cc2)no1` had a Kd of less than 100 nM.

In turn, `CC(C)(C)c1cc(NC(=O)Nc2ccc(NC(=O)c3ncccc3O)cc2)no1` [drawing 696] gave a dissociation constant Kd of 100 to 1000 nM.

`CC(C)(C)c1cc(NC(=O)Nc2ccc(Nc3nc(Cl)nc4[nH]cnc34)cc2)no1` [drawing 697]: the Kd fell in the range of 100 to 1000 nM.

Turning to `COc1cc2ncnc(Nc3ccc(NC(=O)Nc4cc(C(C)(C)C)on4)cc3)c2cc1OC` [drawing 698], the Kd was less than 100 nM.

In the case of `COc1cc2nc(Cl)nc(Nc3ccc(NC(=O)Nc4cc(C(C)(C)C)on4)cc3)c2cc1OC` [drawing 699], the Kd was less than 100 nM.

As to `COc1cc(OC)nc(Oc2cccc(C(=O)Nc3ccc(NC(=O)Nc4cc(C(C)(C)C)on4)cc3)c2)n1` [drawing 700], the Kd was in the range of 1000 to 10000 nM.

In turn, `CC(C)(C)c1cc(NC(=O)Nc2ccc(Nc3ncnc4[nH]cnc34)cc2)no1` [drawing 701] came in with a dissociation constant (Kd) of less than 100 nM.

Regarding `CC(C)(C)c1cc(NC(=O)Nc2ccc(Nc3nc(N)nc4[nH]cnc34)cc2)no1` [drawing 703], the equilibrium dissociation constant (Kd) lay within 100 to 1000 nM.

Another test addresses T2, p38-alpha(FKIN) (Homo sapiens, UniProt Q16539).
T2 construct: made in house
The test can be described thus: Binding constant (Kd) measurement, phage-displayed kinase competition binding assay: p38. Particulars: Kd class symbols.
Excerpt: as §1
`Cc1ccc(NC(=O)Nc2cc(C(C)(C)C)on2)cc1`: the dissociation constant Kd was 1000 to 10000 nM.

`CC(C)(C)c1cc(NC(=O)Nc2ccc(O)cc2)no1`: the dissociation constant (Kd) is 1000 to 10000 nM.

Take `CC(C)(C)c1cc(NC(=O)Nc2ccc(Cl)cc2)on1`: the equilibrium dissociation constant (Kd) fell in the range of 1000 to 10000 nM.

For the molecule `COc1ccc(NC(=O)Nc2cc(C(C)(C)C)on2)cc1`, the dissociation constant (Kd) was 1000 to 10000 nM.

The molecule `COc1ccc(NC(=O)Nc2cc(C(C)(C)C)no2)cc1` displayed a Kd of 1000 to 10000 nM.

Turning to `CC(C)(C)c1cc(NC(=O)Nc2ccc(Cl)cc2)no1`, the dissociation constant (Kd) is 1000 to 10000 nM.

For the molecule `CC(C)(C)c1cc(NC(=O)Nc2ccc(Br)cc2F)on1`, the Kd is 100 to 1000 nM.

`CC(C)(C)c1cc(NC(=O)Nc2ccc(OCCN3CCCCC3)c3ccccc23)no1`: the Kd was less than 100 nM.

With `CSc1ccc(NC(=O)Nc2cc(C(C)(C)C)no2)cc1`, the Kd fell in the range of 1000 to 10000 nM.

Take `CSc1ccc(NC(=O)Nc2cc(C(C)(C)C)on2)cc1`: the Kd is 1000 to 10000 nM.

Molecule `COc1ccc(NC(=O)Nc2cc(C(C)(C)C)nn2-c2ccc(C)cc2)cc1` had an equilibrium dissociation constant (Kd) of 100 to 1000 nM.

`Cc1ccc(-n2nc(C(C)(C)C)cc2NC(=O)Nc2ccc(Br)cc2C(F)(F)F)cc1` came in with a Kd of 100 to 1000 nM.

Turning to `CC(C)(C)c1cc(NC(=O)NCc2cccc(Cl)c2)no1`, the Kd was in the range of 100 to 1000 nM.

Molecule `Cc1ccc(-n2nc(C(C)(C)C)cc2NC(=O)Nc2cc(C(C)(C)C)on2)cc1` returned a Kd of 100 to 1000 nM.

Turning to `Cc1ccc(-n2nc(C(C)(C)C)cc2NC(=O)Nc2ccc(Cl)c(C(F)(F)F)c2)cc1`, the equilibrium dissociation constant (Kd) lay in the range of 100 to 1000 nM.

`Cc1ccc(-n2nc(C(C)(C)C)cc2NC(=O)Nc2ccc(Cl)cc2)cc1` had a Kd of less than 100 nM.

For `C[S+]([O-])c1ccc(NC(=O)Nc2cc(C(C)(C)C)on2)cc1` (stereo not drawn), the Kd lay in the range of 1000 to 10000 nM.

For the molecule `Cc1ccc(-n2nc(C(C)(C)C)cc2NC(=O)Nc2ccc(O)cc2)cc1`, the dissociation constant Kd fell in the range of 100 to 1000 nM.

As to `O=C(Nc1ccccc1)Nc1cc(Cl)c([N+](=O)O)cc1O`, the Kd was 100 to 1000 nM.

`CC(C)(C)c1cc(NC(=O)Nc2ccccc2)no1` returned a Kd of 1000 to 10000 nM.

Take `Cc1c(Cl)cccc1NC(=O)Nc1cc(C(C)(C)C)on1`: the Kd was 100 to 1000 nM.

Take `Cc1ccc(-n2nc(C(C)(C)C)cc2NC(=O)Nc2ccc(OCc3ccccc3)cc2)cc1`: the Kd was 100 to 1000 nM.

`Cc1ccc(-n2nc(C(C)(C)C)cc2NC(=O)Nc2ccc(OCCN3CCOC(CO)C3)c3ccccc23)cc1` (stereo not drawn) displayed a Kd of less than 100 nM.

Take `CC(C)(C)c1cc(NC(=O)Nc2ccc(NC(=O)c3cccnc3)cc2)no1`: the Kd is 100 to 1000 nM.

Turning to `NC(=O)c1cc(Oc2ccc(Nc3c(Nc4ccc(Cl)c(C(F)(F)F)c4)c(=O)c3=O)cc2)ccn1`, the equilibrium dissociation constant (Kd) fell in the range of 100 to 1000 nM.

For the molecule `Cn1nc(C(C)(C)C)cc1NC(=O)Nc1cccc2ccccc12`, the Kd is 100 to 1000 nM.

For `CC(C)(C)c1cc(NC(=O)Nc2ccc(NC(=O)c3cnc4ccccc4c3)cc2)no1` [drawing 680], the Kd lay in the range of 1000 to 10000 nM.

A further test has as its target T3, MKNK2 (DKIN) (Homo sapiens, UniProt Q9HBH9).
T3 construct: (DKIN); made in house
Nature of the test: Binding constant (Kd) measurement, phage-displayed kinase competition binding assay: MKNK2. Particulars: Kd class symbols.
Excerpt: as §1
The molecule `Cc1cnc(C(=O)Nc2ccc(NC(=O)Nc3cc(C(C)(C)C)on3)cc2)cn1` returned an equilibrium dissociation constant (Kd) of 100 to 1000 nM.

`CC(C)(C)c1cc(NC(=O)Nc2ccc(NC(=O)c3ccc4ncccc4c3)cc2)no1` showed a Kd of 1000 to 10000 nM.

For `CC(C)(C)c1cc(NC(=O)Nc2ccc(NC(=O)c3cnnc4ccccc34)cc2)no1`, the Kd is less than 100 nM.

In turn, `CC(C)(C)c1cc(NC(=O)Nc2ccc(NC(=O)c3cccc4nsnc34)cc2)no1` came in with a Kd of 1000 to 10000 nM.

Molecule `CC(C)(C)c1cc(NC(=O)Nc2ccc(NC(=O)c3cscn3)cc2)no1` returned an equilibrium dissociation constant (Kd) of 100 to 1000 nM.

In turn, `CC(C)(C)c1cc(NC(=O)Oc2ccc(NC(=O)c3nccnc3N)cc2)no1` displayed a dissociation constant (Kd) of 100 to 1000 nM.

`Cc1cnc(C(=O)Nc2ccc(NC(=O)Nc3cc(C(C)(C)C)on3)cc2)c(C(=O)O)n1`: the Kd was 1000 to 10000 nM.

In the case of `CC(C)(C)c1cc(NC(=O)Nc2ccc(Nc3nc(Cl)nc4[nH]cnc34)cc2)no1` [drawing 682], the Kd lay in the range of 1000 to 10000 nM.

Molecule `COc1cc2nc(Cl)nc(Nc3ccc(NC(=O)Nc4cc(C(C)(C)C)on4)cc3)c2cc1OC` [drawing 684] came in with a Kd of 1000 to 10000 nM.

As for `CC(C)(C)c1cc(NC(=O)Nc2ccc(Nc3ncnc4[nH]cnc34)cc2)no1` [drawing 686], the equilibrium dissociation constant (Kd) was less than 100 nM.

For the molecule `CC(C)(C)c1cc(NC(=O)Nc2ccc(NC(=O)c3ncccc3O)cc2)no1` [drawing 687], the Kd is less than 100 nM.

On to `CC(C)(C)c1cc(NC(=O)Nc2ccc(NC(=O)c3cnc4ccccc4c3)cc2)no1` [drawing 689], for which the Kd lay in the range of 1000 to 10000 nM.

`CC(C)(C)c1cc(NC(=O)Nc2ccc(Nc3nc(N)nc4[nH]cnc34)cc2)no1` [drawing 691] yielded an equilibrium dissociation constant (Kd) of less than 100 nM.

`COc1cc2ncnc(Nc3ccc(NC(=O)Nc4cc(C(C)(C)C)on4)cc3)c2cc1OC` [drawing 692]: the Kd is less than 100 nM.

On to `COc1cc(OC)nc(Oc2cccc(C(=O)Nc3ccc(NC(=O)Nc4cc(C(C)(C)C)on4)cc3)c2)n1` [drawing 693], for which the Kd fell in the range of 100 to 1000 nM.
